Series [1] in a line: Oral pharmacokinetic analysis in rats. It counts as in vivo. The settings on record: niclosamide dose 10 mg/kg by oral gavage, n = 5. Here is the method:
The oral pharmacokinetic analysis was conducted at Pharmaron (Ningbo, China). The study protocol was approved and conducted in accordance with the Institutional Animal Care and Use Committee (IACUC) guidelines at Pharmaron. (IACUC; Protocol Number AUP-PK-R-06012019). […] The powders were blended by mortar and pestle and loaded into the capsules using the capsule filling funnel for size 9 (Torpac, Fairfield, NJ, USA). […] Two mobile phases were used. The mobile phase A was a 0.1% formic acid aqueous solution, and the mobile phase B was a mixture of 5% water and 95% acetonitrile (0.1% formic acid). Then, 50 μL of plasma with 5 μL of methanol were added to 200 μL of methanol containing an internal standard mixture for protein precipitation. The samples were vortexed for 30 s and underwent centrifugation for 15 min at 4000 rpm and […]. Thereafter, the supernatant was diluted three times with water, and 2 μL were injected into the HPLC. Furthermore, the resultant particles were subjected to dissolution and the resultant supernatants after centrifugation were analyzed.

Series [2] in a line: Pharmacokinetic evaluation of milled niclosamide extrudate in CD-1 mice. The settings on record: 500 mg/kg suspended in 0.5% Methocel A4M. It counts as in vivo.
Another series relates to COVID-19. The settings on record: Vero E6 cells; cited from earlier work.
The test system of another series is SARS-CoV. The settings on record: Vero cells infected by SARS-CoV (2002 pandemic); cited from earlier work.
The next series concerns SARS-CoV-2. Format: cell-based. The settings on record: assumed that the wet tissue has a density.

One may read the Cmax as the peak of the concentration-time curve. The term Tmax denotes the time from dosing to the highest level. Take `O=C(Nc1ccc([N+](=O)[O-])cc1Cl)c1cc(Cl)ccc1O`: in series [1], the AUCInf is 188 ng·h/mL, the AUClast turned out to be 168 ng·h/mL, the “AUC—% Extrap_obs” value was 8.4% and the Cmax turned out to be 48.3 ng/mL. Moreover, in series [1], the MRTInf_obs is listed as 3.56 h, the T1/2 was determined as 1.00 h and the Tmax is 3.60 h.

On to `O=C(Nc1ccc([N+](=O)[O-])cc1Cl)c1cc(Cl)ccc1O` [Crystalline Nic], for which, in series [2], the AUC0-last is 1454.6 ng·h/mL, the Cmax is on record as 661.7 ng/mL and the Tmax stood at 0.5 h.

As usually defined, the IC50 is the concentration that gives 50% inhibition. Consider `CCN(CC)CCCC(C)Nc1ccnc2cc(Cl)ccc12` (stereo not shown) [chloroquine], for which the IC50 is 1130 nM with COVID-19 and 4400 nM with SARS-CoV.

Turning to `O=C(Nc1ccc([N+](=O)[O-])cc1Cl)c1cc(Cl)ccc1O` [niclosamide, 5-Chloro-N-(2-chloro-4-nitrophenyl)salicylamide], in the series on SARS-CoV-2, the “Estimated niclosamide IC50 for SARS-CoV-2” value is listed as 0.09156 μg/g of wet tissue.

Values taken from patent US12076328B2 (priority 2020, dated 2024).
